Test results from patent publication US6794491B1, “Polypeptides, their production and use” (Takeda Chemical Industries, Ltd., priority 1995, dated 2004).
Where no end group is shown, it is not given here.

Legend:
[1] = motor activity of mouse after administration to lateral ventricle; assay type: in vivo, ICR male mice; details: for rearing behavior (increasing tendency) / spontaneous motor activity / rearing behavior: lateral ventricle, mouse
Experimental: The effects of administration of […] to mouse lateral ventricle on motor activity were studied. The mature ICR male mice (weight at operation: about 35 g) were anesthetized by intraperitoneal administration of 50 mg/kg of pentobarbital, and then fixed on a stereotaxic apparatus. The skull of a said mouse was exposed, then a hole was made by dental drill for guide-cannulization into the left lateral ventricle. The tip of a stainless-steel guide-cannula (24 G, length: 5 mm) for drug injection to lateral ventricle, was inserted to the position of AP: +0.6 mm (from bregma), L: left 1 mm and H: −1 mm (from dura matter). The guide-cannula was fixed onto the skull with adhesive. The cannula-implanted mice were housed as described above and were used for behavioral analysis at least 3 days after the operation.
Motor activity such as spontaneous motor activity and rearing was measured while each mouse was in a transparent acrylic cage (24×37×30 cm) within a soundproofed, illuminated (light up: at 6-18 o'clock) box. Tap water and laboratory chow were available ad libitum. Motor activity was measured by means of a Supermex (Muromachi Kikai). Drugs and PBS were administered at 2:30±30 p.m. At the administration, a stainless-steel micro-injection cannula (30 G, length: 6 mm) was inserted into the guide-cannula. The micro-injection cannula was connected to a microsyringe pump with Teflon tube, and injection of PBS or a peptide dissolved in PBS lasted for 2 minutes at a speed of 2 μl/min. The micro-injection cannula was withdrawn after over a period of 2 minutes from end of injection, then motor activity was meausred.
The results are expressed as a mean±S.E.M. Student's t test was used to determine the significance of differences between values from the mice treated with a peptide and the PBS-injected controls. For the purpose of this analysis, p<0.05 was assumed to be the minimal level of significance.

[2] = plasma growth hormone (GH) level in freely moving rats, GHRH-induced; assay type: in vivo, male Wistar rats; details: 50 nmol into the third ventricle, 5 μg/kg GHRH 10 min later
Experimental: Mature male Wistar rats were anesthetized with pentobarbital 50 mg/kg i.p. and, as in Example 41, a stainless-steel guide cannula AG-12 (0.4 mm in. dia., 0.5 mm out. dia., EICOM) was implanted in position with its tip situated in the upper part of the third ventricle. After the operation the rats were housed in individual cages and kept for at least 3 days for recuperation and, then, a cannula (30 cm long, 0.5 mm in. dia., 0.9 mm out. dia., Natsume Seisakusho) filled with heparin (200 U/ml)-containing saline was inserted into the right atrium from the right jugular vein under pentobarbital anesthesia. The rats were maintained overnight for complete arousal from anesthesia and then transferred to transparent acrylic cages (30 cm×30 cm×35 cm). A 1 ml tuberculin syringe with a 24-G needle (both by Termo) was connected to the cannula inserted in the atrium and 300 μl of blood was drawn. To prevent clotting, the syringe was filled with 20 μl of saline containing 200 U/ml of heparin beforehand. […] The concentrations of GH in the plasma were determined by radioimmunoassay.
The results were expressed as a mean±S.E.M. To test for significant difference between the group treated with 19P2-L31 dissolved in PBS and the control group treated with PBS alone, Student's t-test was used. […]

Ser-Arg-Ala-His-Gln-His-Ser-Met-Glu-Ile-Arg-Thr-Pro-Asp-Ile-Asn-Pro-Ala-Trp-Tyr-Ala-Gly-Arg-Gly-Ile-Arg-Pro-Val-Gly-Arg-Phe-NH2 (SRAHQHSMEIRTPDINPAWYAGRGIRPVGRF-NH2) [19P2-L31, synthetic ligand polypeptide]
rearing behavior (increasing tendency) ([1]; 0.01 nmol): not statistically significant | spontaneous motor activity ([1]; 0.01 nmol, at 20 min and 40 min after injection): significant increase | rearing behavior (increasing tendency) ([1]; 0.1 nmol): not statistically significant | spontaneous motor activity ([1]; 0.1 nmol, at 25 min, 40 min and 70 min after injection): significant increase | spontaneous motor activity ([1]; 1 nmol): did not cause statistically significant change | rearing behavior ([1]; 1 nmol, at only 105 min after injection): significant decrease | rearing behavior ([1]; 10 nmol): significant variation | spontaneous motor activity ([1]; 10 nmol): significant increase | amount of activity (motor activity) ([1]; 0.01-10 nmol, lateral ventricle of mice, summary): an increase in the amount of activity was found | GHRH-induced elevation of plasma GH [2]: significantly inhibited
